ChEMBL document CHEMBL1201862, “PubChem BioAssay data set” (2004)
Active and inactive are the calls of the source.

Tests used:
[1] = target: Intestinal-type alkaline phosphatase (Homo sapiens, UniProt P09923); assay: human intestinal alkaline phosphatase activators, dose response, biochemical, luminescence, uHTS hits (AID 463120); type: functional
[2] = control 3'UTR Renilla luciferase suppression, dose response, counter-screen for Shn3 inhibitor project, cell-based, Clone20-Shn3RL, cherry-picked (AID 624133); type: functional
[3] = Luminescence Cell-Based Dose Response HTS to Identify Inhibitors of 5'UTR Stem-Loop Driven Prion Protein mRNA Translation in H4 Neuroglioblastoma Cells. [Related pubchem assays: 1827 (Project Summary), 1813 (Primary HTS)]; type: functional
[4] = cytotoxicity in HEK-293T cells, dose response, cytotoxicity control for TCR NF-kB inhibitor project, luminescence, T-cell screen hits (AID 489026); type: functional, cell-based;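 also: cells exposed to compound about 14 hours before the viability readout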
[5] = target: T1, Replicative DNA helicase DnaB (Mycobacterium tuberculosis, UniProt P9WMR3); assay: DnaB intein splicing inhibitors, dose response, biochemical, cell-free fluorescence (AID 449749); type: functional
T1 sequence (P9WMR3 whole entry): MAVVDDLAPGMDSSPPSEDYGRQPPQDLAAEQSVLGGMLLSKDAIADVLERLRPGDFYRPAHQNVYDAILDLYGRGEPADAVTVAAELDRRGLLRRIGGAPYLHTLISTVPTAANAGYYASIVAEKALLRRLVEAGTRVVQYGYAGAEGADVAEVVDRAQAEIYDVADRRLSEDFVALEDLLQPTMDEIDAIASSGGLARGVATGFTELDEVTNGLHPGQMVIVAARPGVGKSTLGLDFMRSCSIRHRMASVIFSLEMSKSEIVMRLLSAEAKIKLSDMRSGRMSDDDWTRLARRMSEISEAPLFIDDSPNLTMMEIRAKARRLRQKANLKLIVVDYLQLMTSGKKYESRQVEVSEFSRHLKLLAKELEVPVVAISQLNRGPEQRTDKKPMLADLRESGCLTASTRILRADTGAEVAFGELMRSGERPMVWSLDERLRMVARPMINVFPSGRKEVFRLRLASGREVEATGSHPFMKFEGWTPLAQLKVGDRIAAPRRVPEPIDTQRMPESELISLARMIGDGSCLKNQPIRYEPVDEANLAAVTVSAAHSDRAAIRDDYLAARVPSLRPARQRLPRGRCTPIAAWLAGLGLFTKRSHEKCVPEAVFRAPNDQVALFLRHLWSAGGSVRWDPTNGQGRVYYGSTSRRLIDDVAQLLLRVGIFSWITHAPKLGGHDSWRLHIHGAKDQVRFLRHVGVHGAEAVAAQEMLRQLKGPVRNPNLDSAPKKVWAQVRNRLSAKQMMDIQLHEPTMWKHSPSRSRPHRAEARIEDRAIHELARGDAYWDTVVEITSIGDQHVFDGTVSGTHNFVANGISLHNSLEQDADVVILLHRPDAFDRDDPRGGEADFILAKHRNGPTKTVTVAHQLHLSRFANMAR

[6] = cytotoxicity toward DRD oncogenic fibroblasts, dose response, cell-based, non-viral oncogenic, luminescence (AID 1934); type: functional; settings: Homo sapiens
[7] = target: Proto-oncogene tyrosine-protein kinase ROS (Homo sapiens, UniProt P08922); type: functional;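 also: ROS1 tested as one member of a kinome-wide kinase panel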
[8] = target: Cyclin-dependent kinase 1 (Homo sapiens, UniProt P06493); type: functional;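 also: Kinome-wide panel profiling, with the target listed as panel member CDC2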
[9] = target: Fibroblast growth factor receptor 3 (Homo sapiens, UniProt P22607); type: functional
[10] = target: RAC-alpha serine/threonine-protein kinase (Homo sapiens, UniProt P31749); type: functional;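 also: AKT1 affinity measured as one member of a kinome-wide kinase profiling panel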
[11] = target: MAP kinase-activated protein kinase 3 (Homo sapiens, UniProt Q16644); type: functional;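 also: value comes from a kinome-wide profiling panel in which MAPKAPK3 is one of the panel members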
[12] = target: Interleukin-1 receptor-associated kinase 1 (Homo sapiens, UniProt P51617); type: functional;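 also: IRAK1 tested as one member of a kinome panel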
[13] = target: Testis-specific serine/threonine-protein kinase 2 (Homo sapiens, UniProt Q96PF2); type: functional;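 also: part of the Navigating the Kinome panel, target entry STK22B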
[14] = target: Tyrosine-protein kinase JAK2 (Homo sapiens, UniProt O60674); type: functional;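 also: JAK2 tested as one member of a kinase panel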
[15] = target: Tyrosine-protein kinase Lyn (Homo sapiens, UniProt P07948); type: functional;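 also: lyn as one member of a kinase panel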
[16] = target: MAP/microtubule affinity-regulating kinase 3 (Homo sapiens, UniProt P27448); type: functional;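 also: MARK3 affinity measured as one member of a kinome panel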
[17] = target: Casein kinase I isoform delta (Homo sapiens, UniProt P48730); type: functional;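 also: measured as one member (CSNK1D) of a kinome panel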
Aurora kinase B = Aurora kinase B (Homo sapiens, UniProt Q96GD4); type: functional
[18] = target: Mast/stem cell growth factor receptor Kit (Homo sapiens, UniProt P10721); type: functional;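 also: KIT entry within a kinase panel assay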
[19] = target: Cyclin-dependent kinase 5 (Homo sapiens, UniProt Q00535); type: functional;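 also: CDK5 measured as one member of a kinase profiling panel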
[20] = target: Casein kinase I isoform alpha (Homo sapiens, UniProt P48729); type: functional
[21] = target: Dual specificity mitogen-activated protein kinase kinase 1 (Homo sapiens, UniProt Q02750); assay: Navigating the Kinome. Panel member name: MAP2K1; type: functional
[22] = target: Serine/threonine-protein kinase BRSK1 (Homo sapiens, UniProt Q8TDC3); type: functional;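 also: measured within a kinome-wide kinase panel, with the target listed as KIAA1811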
[23] = target: Vascular endothelial growth factor receptor 2 (Homo sapiens, UniProt P35968); type: functional
[24] = target: Cyclin-dependent kinase 8 (Homo sapiens, UniProt P49336); assay: Navigating the Kinome. Panel member name: CDK8; type: functional
[25] = target: Insulin-like growth factor 1 receptor (Homo sapiens, UniProt P08069); assay: Navigating the Kinome. Panel member name: IGF1R; type: functional
[26] = target: Epidermal growth factor receptor (Homo sapiens, UniProt P00533)
[27] = target: Serine/threonine-protein kinase pim-3 (Homo sapiens, UniProt Q86V86); type: functional;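 also: value obtained as one member of a broad kinase panel profiling effort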
[28] = target: Dual specificity tyrosine-phosphorylation-regulated kinase 4 (Homo sapiens, UniProt Q9NR20); type: functional
[29] = target: Testis-specific serine/threonine-protein kinase 1 (Homo sapiens, UniProt Q9BXA7); type: functional

Vascular endothelial growth factor receptor 2, sequence (P35968 whole entry): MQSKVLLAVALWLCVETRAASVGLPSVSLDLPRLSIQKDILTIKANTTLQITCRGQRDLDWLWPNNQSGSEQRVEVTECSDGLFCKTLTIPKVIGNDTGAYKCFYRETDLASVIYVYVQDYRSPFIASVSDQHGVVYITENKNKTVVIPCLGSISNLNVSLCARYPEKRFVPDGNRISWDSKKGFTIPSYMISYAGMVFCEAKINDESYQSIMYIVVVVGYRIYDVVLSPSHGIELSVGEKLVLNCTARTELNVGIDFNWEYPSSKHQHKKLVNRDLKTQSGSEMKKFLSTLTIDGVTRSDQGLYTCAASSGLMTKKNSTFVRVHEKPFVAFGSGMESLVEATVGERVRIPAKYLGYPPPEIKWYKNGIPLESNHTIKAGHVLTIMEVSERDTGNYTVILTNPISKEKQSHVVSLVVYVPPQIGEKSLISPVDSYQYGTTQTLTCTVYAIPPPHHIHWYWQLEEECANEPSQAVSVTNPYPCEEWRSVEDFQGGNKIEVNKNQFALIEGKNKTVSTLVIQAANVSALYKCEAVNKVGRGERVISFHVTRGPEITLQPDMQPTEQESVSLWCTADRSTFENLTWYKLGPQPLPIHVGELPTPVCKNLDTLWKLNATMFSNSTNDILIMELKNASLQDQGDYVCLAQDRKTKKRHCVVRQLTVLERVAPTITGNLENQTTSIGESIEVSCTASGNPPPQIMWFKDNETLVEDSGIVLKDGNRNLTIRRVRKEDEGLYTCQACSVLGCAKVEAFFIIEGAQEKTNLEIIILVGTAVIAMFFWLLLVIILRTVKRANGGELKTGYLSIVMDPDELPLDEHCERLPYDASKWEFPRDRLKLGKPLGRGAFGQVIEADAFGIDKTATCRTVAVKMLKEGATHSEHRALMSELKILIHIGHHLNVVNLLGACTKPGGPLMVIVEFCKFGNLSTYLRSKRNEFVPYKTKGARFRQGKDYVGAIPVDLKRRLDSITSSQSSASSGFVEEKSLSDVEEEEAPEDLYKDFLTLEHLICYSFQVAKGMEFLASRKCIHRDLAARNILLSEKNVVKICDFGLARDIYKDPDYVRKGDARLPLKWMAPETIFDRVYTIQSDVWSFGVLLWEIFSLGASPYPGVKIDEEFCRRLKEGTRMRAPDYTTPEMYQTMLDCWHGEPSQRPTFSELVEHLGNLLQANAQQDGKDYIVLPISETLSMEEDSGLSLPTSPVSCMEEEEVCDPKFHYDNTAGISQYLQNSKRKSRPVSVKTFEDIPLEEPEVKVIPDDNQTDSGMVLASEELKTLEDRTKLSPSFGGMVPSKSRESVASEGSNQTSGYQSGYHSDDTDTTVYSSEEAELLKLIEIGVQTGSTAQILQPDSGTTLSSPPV
Epidermal growth factor receptor, sequence (P00533 whole entry): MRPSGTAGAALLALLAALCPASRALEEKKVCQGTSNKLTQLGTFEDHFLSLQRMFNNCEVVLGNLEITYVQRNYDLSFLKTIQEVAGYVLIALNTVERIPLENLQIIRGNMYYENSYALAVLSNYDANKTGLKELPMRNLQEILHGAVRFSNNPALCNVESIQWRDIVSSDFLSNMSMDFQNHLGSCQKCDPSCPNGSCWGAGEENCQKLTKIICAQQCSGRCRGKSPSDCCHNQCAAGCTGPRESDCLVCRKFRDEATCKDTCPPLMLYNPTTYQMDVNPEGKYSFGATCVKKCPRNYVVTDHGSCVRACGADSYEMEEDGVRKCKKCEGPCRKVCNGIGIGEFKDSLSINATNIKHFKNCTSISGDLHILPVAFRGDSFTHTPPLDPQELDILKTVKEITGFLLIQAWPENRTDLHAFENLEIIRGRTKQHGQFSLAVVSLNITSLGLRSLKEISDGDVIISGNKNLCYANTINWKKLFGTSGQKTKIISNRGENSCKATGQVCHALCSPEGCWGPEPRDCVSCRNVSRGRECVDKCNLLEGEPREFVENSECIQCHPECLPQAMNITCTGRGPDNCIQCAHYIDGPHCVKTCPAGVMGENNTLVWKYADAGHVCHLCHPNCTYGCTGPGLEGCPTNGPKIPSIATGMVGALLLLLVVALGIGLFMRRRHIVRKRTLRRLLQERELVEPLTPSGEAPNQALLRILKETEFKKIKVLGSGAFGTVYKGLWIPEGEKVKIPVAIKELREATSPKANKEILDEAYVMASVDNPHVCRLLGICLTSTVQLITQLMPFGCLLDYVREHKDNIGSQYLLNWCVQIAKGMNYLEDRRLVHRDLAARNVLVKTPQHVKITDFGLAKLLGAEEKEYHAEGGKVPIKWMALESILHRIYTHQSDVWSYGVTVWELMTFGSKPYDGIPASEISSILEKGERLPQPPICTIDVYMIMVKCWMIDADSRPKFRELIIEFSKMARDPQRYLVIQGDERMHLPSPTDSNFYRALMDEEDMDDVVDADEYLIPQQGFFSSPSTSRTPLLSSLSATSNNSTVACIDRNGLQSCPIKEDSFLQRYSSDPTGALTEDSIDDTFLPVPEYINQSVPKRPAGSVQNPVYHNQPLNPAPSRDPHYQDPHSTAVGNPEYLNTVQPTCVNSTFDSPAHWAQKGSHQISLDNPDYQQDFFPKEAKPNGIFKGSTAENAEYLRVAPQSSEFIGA
MAP kinase-activated protein kinase 3, sequence (Q16644 whole entry): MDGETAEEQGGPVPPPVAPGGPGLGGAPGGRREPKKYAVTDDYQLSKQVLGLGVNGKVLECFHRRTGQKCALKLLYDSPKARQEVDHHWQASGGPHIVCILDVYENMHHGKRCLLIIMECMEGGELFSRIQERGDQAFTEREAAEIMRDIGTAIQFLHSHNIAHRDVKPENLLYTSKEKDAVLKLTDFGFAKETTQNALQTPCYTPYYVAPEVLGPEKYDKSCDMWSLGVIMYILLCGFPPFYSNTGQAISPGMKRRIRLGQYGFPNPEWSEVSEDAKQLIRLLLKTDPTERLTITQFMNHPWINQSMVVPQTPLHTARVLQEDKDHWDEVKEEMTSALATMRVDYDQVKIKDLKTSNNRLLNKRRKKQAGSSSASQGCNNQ
Mast/stem cell growth factor receptor Kit, sequence (P10721 whole entry): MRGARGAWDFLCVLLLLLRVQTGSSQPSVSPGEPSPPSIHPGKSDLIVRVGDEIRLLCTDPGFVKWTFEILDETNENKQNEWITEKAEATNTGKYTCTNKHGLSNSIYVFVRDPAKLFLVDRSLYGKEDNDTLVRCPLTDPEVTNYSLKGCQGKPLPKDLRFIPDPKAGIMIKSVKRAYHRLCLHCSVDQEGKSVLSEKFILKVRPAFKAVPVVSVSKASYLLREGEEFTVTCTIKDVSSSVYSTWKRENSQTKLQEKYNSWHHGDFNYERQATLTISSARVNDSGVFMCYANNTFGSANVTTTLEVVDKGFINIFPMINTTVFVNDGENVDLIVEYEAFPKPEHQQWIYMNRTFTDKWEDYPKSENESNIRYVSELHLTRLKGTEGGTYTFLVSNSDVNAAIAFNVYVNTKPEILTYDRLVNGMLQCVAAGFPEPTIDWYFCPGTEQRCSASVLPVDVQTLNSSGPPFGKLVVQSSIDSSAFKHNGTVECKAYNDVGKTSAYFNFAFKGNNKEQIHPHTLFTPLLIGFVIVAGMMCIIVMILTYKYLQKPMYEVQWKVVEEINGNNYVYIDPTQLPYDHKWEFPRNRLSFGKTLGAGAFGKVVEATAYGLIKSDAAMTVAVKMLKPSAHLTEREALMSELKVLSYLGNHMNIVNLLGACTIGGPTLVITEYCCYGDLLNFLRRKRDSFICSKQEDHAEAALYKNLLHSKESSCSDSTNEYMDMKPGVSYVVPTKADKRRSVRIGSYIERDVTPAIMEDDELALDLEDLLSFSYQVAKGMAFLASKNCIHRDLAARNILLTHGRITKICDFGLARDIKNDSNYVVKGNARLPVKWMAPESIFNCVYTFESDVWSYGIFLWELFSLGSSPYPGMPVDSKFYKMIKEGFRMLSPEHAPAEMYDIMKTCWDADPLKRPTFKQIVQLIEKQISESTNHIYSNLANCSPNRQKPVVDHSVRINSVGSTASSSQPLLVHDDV
Tyrosine-protein kinase JAK2, sequence (O60674 whole entry): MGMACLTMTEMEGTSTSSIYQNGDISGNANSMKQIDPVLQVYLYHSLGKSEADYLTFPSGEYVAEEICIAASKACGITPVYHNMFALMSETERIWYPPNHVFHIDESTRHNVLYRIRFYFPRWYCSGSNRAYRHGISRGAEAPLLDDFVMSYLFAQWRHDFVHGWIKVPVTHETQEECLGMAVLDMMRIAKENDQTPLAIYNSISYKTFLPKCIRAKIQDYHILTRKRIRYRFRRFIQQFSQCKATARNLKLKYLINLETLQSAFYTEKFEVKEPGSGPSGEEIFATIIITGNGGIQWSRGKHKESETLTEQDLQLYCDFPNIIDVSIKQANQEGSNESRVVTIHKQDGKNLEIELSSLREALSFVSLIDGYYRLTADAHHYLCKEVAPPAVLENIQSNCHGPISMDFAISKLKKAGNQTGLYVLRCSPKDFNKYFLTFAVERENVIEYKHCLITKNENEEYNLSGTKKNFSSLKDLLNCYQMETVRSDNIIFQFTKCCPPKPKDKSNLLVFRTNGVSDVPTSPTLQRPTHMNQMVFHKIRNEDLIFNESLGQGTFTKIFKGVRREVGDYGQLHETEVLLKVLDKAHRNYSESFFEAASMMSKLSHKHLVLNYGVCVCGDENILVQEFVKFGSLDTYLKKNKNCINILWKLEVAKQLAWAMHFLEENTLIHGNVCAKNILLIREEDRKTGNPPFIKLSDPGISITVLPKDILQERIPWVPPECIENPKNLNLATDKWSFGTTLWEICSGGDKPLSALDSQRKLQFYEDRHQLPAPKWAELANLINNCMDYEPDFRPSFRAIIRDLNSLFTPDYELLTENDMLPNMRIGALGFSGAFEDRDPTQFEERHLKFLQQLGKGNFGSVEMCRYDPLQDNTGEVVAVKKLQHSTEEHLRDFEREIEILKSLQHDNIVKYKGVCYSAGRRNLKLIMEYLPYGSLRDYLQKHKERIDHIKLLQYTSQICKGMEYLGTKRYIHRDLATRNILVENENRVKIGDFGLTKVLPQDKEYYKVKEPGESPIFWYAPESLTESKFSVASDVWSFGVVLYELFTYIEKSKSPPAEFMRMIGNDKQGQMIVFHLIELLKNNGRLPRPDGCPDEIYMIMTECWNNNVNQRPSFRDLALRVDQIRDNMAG

## O=C(NN1C(=O)CSC1=S)C(=O)NN1C(=O)CSC1=S
[1]
  EC50: 9.21 µM (active)

## COC(=O)C1CN(C#N)N(c2ccc(Cl)cc2)C12c1ccccc1-c1ccccc12 (stereo not given)
[2]
  AC50: 3 µM (active)
[3]
  EC50: 10.1 µM (active)
[4]
  IC50: 56.6 µM (inactive)
[5]
  AC50: 3.16 µM (active)
[6]
  EC50: 3.75 µM (active)

## Nc1noc2cccc(-c3cccc(O)c3)c12
[7]
  Ki: > 2 µM (inactive)
[8]
  Ki: > 7.94 µM (inactive)
[9]
  Ki: > 2 µM (inactive)
[10]
  Ki: > 7.94 µM (inactive)
[11]
  Ki: > 10 µM (inactive)
[12]
  Ki: > 7.94 µM (inactive)
[13]
  Ki: > 1.58 µM (inactive)
[14]
  Ki: > 1.58 µM (inactive)
[15]
  Ki: > 1.58 µM (inactive)
[16]
  Ki: > 6.31 µM (inactive)
[17]
  Ki: 6.31 µM (active)
Aurora kinase B
  Ki: 3.98 µM (active)
[18]
  Ki: > 1.26 µM (inactive)
[19]
  Ki: > 6.31 µM (inactive)
[20]
  Ki: > 5.01 µM (inactive)
[21]
  Ki: 1.58 µM (active)
[22]
  Ki: 7.94 µM (active)
[23]
  Ki: 7.94 µM (active)
[24]
  Ki: 0.501 µM (active)
[25]
  Ki: > 2 µM (inactive)
[26]
  Ki: > 2 µM (inactive)
[27]
  Ki: > 7.94 µM (inactive)
[28]
  Ki: > 7.94 µM (inactive)
[29]
  Ki: > 1.58 µM (inactive)
